The record followed here is patent US12371454B2, “Cyclic peptide compound having Kras inhibitory action” (priority 2019, dated 2025).

The structures appear in SMILES notation. Starred links: 1 amine or outer side, 2 acyl side, 3 side chain; linkers in the order of their positions; H or OH if unused. Positions of bridges follow the written chain, without caps; N, C: chain ends. Non-standard residues stand in square brackets, D forms with d. Residues, ends and D or L forms follow the SMILES beside them. *: point of attachment. hPhe(3-Cl-4-CF3) = N[C@@H](CCc1ccc(C(F)(F)F)c(Cl)c1)C(=O)O; hPhe(4-CF3) = N[C@@H](CCc1ccc(C(F)(F)F)cc1)C(=O)O; NMePhe(3-Cl) = CN[C@@H](Cc1cccc(Cl)c1)C(=O)O; NMePhe(4-Cl) = CN[C@@H](Cc1ccc(Cl)cc1)C(=O)O; NMedβ3hAla = C[C@H](CC(=O)[*:2])N(C)[*:1]; NMePhe(2-F) = CN[C@@H](Cc1ccccc1F)C(=O)O; NMeGly(cPent) = CN[C@H](C(=O)O)C1CCCC1; NMeCha = CN[C@@H](CC1CCCCC1)C(=O)O; Azetidine(3,3-F2) = FC1(F)CN(*)C1; NMeCba = CN[C@@H](CC1CCC1)C(=O)O; NMeF = CN[C@@H](Cc1ccccc1)C(=O)O; NMeD = CN[C@@H](CC(=O)O)C(=O)O; CH2CONHtBu = CC(C)(C)NC(=O)C*; NMeL = CN[C@@H](CC(C)C)C(=O)O; NMeV = CN[C@H](C(=O)O)C(C)C; d(β3hA) = C[C@@H](N)CC(=O)O; NMeA = CN[C@@H](C)C(=O)O; NMeAib = CNC(C)(C)C(=O)O; Pyrrolidide = C1CCN(*)C1; dNMeA = CN[C@H](C)C(=O)O; Ac5c = NC1(C(=O)O)CCCC1; Aze = O=C(O)[C@@H]1CCN1; Sar = CNCC(=O)O; Propyl = CCC*

This experiment deals with T1, Kras and SOS1 (biotin-tagged human Kras loaded with GDP, His-tagged human SOS1) (Homo sapiens, UniProt P01116, G12D).
T1 construct: made in house; host or cells: E. coli (stated for Kras only)
The experiment in a line: Protein-protein interaction inhibition between Kras and SOS1 (KrasGl2D-SOS PPI) using AlphaScreen. The format is binding. Conditions: AlphaScreen; biotin-tagged human Kras loaded with GDP, His-tagged human SOS1; read-out: KRAS G12D-SOS PPI IC50. As for the experimental part:
Protein-Protein Interaction Inhibition Between Kras and SOS1 (KrasGl2D-SOS PPI) Using AlphaScreen
Protein-protein interaction inhibition (PPI) between Kras and SOS1 was measured by energy transfer from nickel-conjugated donor beads to streptavidin-conjugated acceptor beads using biotin-tagged human Kras expressed in E. coli and loaded with GDP after purification and His-tagged human SOS1 enzyme. This measurement utilizes the phenomenon in which donor beads are irradiated with light at 680 nm, such that energy is transferred to acceptor beads through singlet oxygen and light at 520-620 nm is detected from the acceptor beads.
Inhibition of binding between K-ras and SOS1 is known to inhibit signaling downstream of Kras.
Background: Alpha assays give light when donor and acceptor beads are brought close together.

T1 sequence (P01116 1-188 isoform P01116-2 G12D): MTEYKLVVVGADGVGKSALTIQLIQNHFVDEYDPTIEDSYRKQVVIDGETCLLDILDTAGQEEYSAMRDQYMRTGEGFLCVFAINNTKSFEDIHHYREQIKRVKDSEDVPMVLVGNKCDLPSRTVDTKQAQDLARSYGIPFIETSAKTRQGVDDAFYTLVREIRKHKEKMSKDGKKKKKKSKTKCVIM

For orientation: IC50 means the concentration at which inhibition is half-maximal. Regarding `CC[C@H](C)[C@@H]1NC(=O)[C@H](CC2CCCCC2)N(C)C(=O)C[C@@H](C)NC(=O)[C@H](C(C)C)N(C)C(=O)C2(CCCC2)NC(=O)[C@@H]2CCCN2C(=O)[C@H](CCc2ccc(C(F)(F)F)c(Cl)c2)NC(=O)CN(C)C(=O)[C@H](CC2CCCCC2)N(C)C(=O)[C@@H]2CCN2C(=O)[C@H](C)N(C)C1=O` [Compound 38] (cyclo([Ac5c][NMeV][d(β3hA)][NMeCha]I[NMeA][Aze][NMeCha][Sar][hPhe(3-Cl-4-CF3)]P)), the IC50 came out at 0.16 µM.
As for `CCCOC[C@@H]1NC(=O)[C@H](CC(=O)N2CC(F)(F)C2)N(C)C(=O)[C@H](CCc2ccc(C(F)(F)F)c(Cl)c2)NC(=O)CN(C)C(=O)[C@H](CC2CCCCC2)N(C)C(=O)[C@@H]2CCN2C(=O)[C@H](C)N(C)C(=O)[C@H]([C@@H](C)CC)NC(=O)[C@H](CC(C)C)N(C)C(=O)C[C@@H](C(=O)N(C)C)N(C)C(=O)[C@H](C2CCCC2)N(C)C1=O` [Compound 41] ([NMeL]I[NMeA][Aze][NMeCha][Sar][hPhe(3-Cl-4-CF3)][NMeD](Azetidine(3,3-F2))S(Propyl)[NMeGly(cPent)][NMeD]-NMe2; lactam N-11), the figure is 0.011 µM.
As for `CC[C@H](C)[C@@H]1NC(=O)[C@H](C)N(C)C(=O)C[C@@H](C)NC(=O)[C@H](C2CCCC2)N(C)C(=O)C2(CCCC2)NC(=O)[C@@H]2CCCN2C(=O)[C@H](CCc2ccc(C(F)(F)F)c(Cl)c2)NC(=O)[C@@H](C)N(C)C(=O)[C@H](Cc2cccc(Cl)c2)N(C)C(=O)[C@@H]2CCN2C(=O)[C@H](C)N(C)C1=O` [Compound 42] (cyclo([Ac5c][NMeGly(cPent)][d(β3hA)][NMeA]I[NMeA][Aze][NMePhe(3-Cl)][dNMeA][hPhe(3-Cl-4-CF3)]P)), the IC50 was 0.19 µM.
Turning to `CC[C@H](C)[C@@H]1NC(=O)[C@H](CC(C)C)N(C)C(=O)C[C@@H](C(=O)N(C)C)N(C)C(=O)[C@H](C2CCCC2)N(C)C(=O)C2(CCCC2)NC(=O)[C@H](Cc2ccccc2F)N(C)C(=O)[C@H](CCc2ccc(C(F)(F)F)c(Cl)c2)NC(=O)CN(C)C(=O)[C@H](CC2CCCCC2)N(C)C(=O)[C@@H]2CCN2C(=O)[C@H](C)N(C)C1=O` [Compound 43] ([NMeL]I[NMeA][Aze][NMeCha][Sar][hPhe(3-Cl-4-CF3)][NMePhe(2-F)][Ac5c][NMeGly(cPent)][NMeD]-NMe2; lactam N-11), the IC50 turned out to be 0.031 µM.
As for `CC[C@H](C)[C@@H]1NC(=O)[C@H](C)N(C)C(=O)C[C@@H](C(=O)N2CCCC2)NC(=O)[C@H](CC(C)C)N(C)C(=O)[C@H](CC(C)C)N(C)C(=O)[C@H](CC(C)C)NC(=O)[C@H](CCc2ccc(C(F)(F)F)cc2)NC(=O)CN(C)C(=O)[C@H](Cc2ccc(Cl)cc2)N(C)C(=O)CN(C)C(=O)CN(C)C1=O` [Compound 46] ([NMeA]I[Sar][Sar][NMePhe(4-Cl)][Sar][hPhe(4-CF3)]L[NMeL][NMeL]D-Pyrrolidide; lactam N-11), the figure is 0.12 µM.
The same measure for `CC[C@H](C)[C@@H]1NC(=O)[C@H](C)N(C)C(=O)C[C@@H](C(=O)N2CCCC2)NC(=O)[C@H](CC(C)C)N(C)C(=O)[C@H](Cc2ccccc2)N(C)C(=O)[C@H](CC(C)C)NC(=O)[C@H](CCc2ccc(C(F)(F)F)cc2)NC(=O)CN(C)C(=O)[C@H](Cc2ccc(Cl)cc2)N(C)C(=O)CN(C)C(=O)CN(C)C1=O` [Compound 50] ([NMeA]I[Sar][Sar][NMePhe(4-Cl)][Sar][hPhe(4-CF3)]L[NMeF][NMeL]D-Pyrrolidide; lactam N-11): 0.028 µM; for `CC[C@H](C)[C@@H]1NC(=O)[C@H](C)N(C)C(=O)C[C@@H](C(=O)N2CCCC2)NC(=O)[C@H](CC(C)C)N(C)C(=O)[C@H](COCC(=O)NC(C)(C)C)NC(=O)[C@H](CC(C)C)NC(=O)[C@H](CCc2ccc(C(F)(F)F)cc2)NC(=O)CN(C)C(=O)[C@H](Cc2ccc(Cl)cc2)N(C)C(=O)CN(C)C(=O)CN(C)C1=O` [Compound 53] ([NMeA]I[Sar][Sar][NMePhe(4-Cl)][Sar][hPhe(4-CF3)]LS(CH2CONHtBu)[NMeL]D-Pyrrolidide; lactam N-11): 0.12 µM.
As for `CC[C@H](C)[C@@H]1NC(=O)[C@H](CC(C)C)N(C)C(=O)C[C@@H](C)N(C)C(=O)[C@H](CC(C)C)NC(=O)C(C)(C)N(C)C(=O)[C@H](CC(C)C)NC(=O)[C@H](CCc2ccc(C(F)(F)F)c(Cl)c2)NC(=O)CN(C)C(=O)[C@H](CC2CCCCC2)N(C)C(=O)[C@@H]2CCN2C(=O)CN(C)C1=O` [Compound 57] (cyclo([Aze][NMeCha][Sar][hPhe(3-Cl-4-CF3)]L[NMeAib]L[NMedβ3hAla][NMeL]I[Sar])), the figure is 0.016 µM.
As to `CC[C@H](C)[C@@H]1NC(=O)[C@H](CC(C)C)N(C)C(=O)C[C@@H](C)NC(=O)[C@H](CC2CCC2)N(C)C(=O)C2(CCCC2)NC(=O)[C@@H]2CCCN2C(=O)[C@H](CCc2ccc(C(F)(F)F)c(Cl)c2)NC(=O)CN(C)C(=O)[C@H](CC2CCCCC2)N(C)C(=O)CN(C)C(=O)CN(C)C1=O` [Compound 59] (cyclo([Ac5c][NMeCba][d(β3hA)][NMeL]I[Sar][Sar][NMeCha][Sar][hPhe(3-Cl-4-CF3)]P)), the IC50 was determined as 0.036 µM.
